Laboratory results reported in the supplement of paper PMC10307832.

What was measured:
Assay in all cases: relative viability (nuclei count vs DMSO), 5 days (fraction); higher = more cells survive
AZ3146 + Lapatinib = compound: CN1CCC(CC1)OC2=CC(=C(C=C2)NC3=NC=C4C(=N3)N(C(=O)N4C)C5CCCC5)OC [AZ3146] + CS(=O)(=O)CCNCc1ccc(-c2ccc3ncnc(Nc4ccc(OCc5cccc(F)c5)c(Cl)c4)c3c2)o1 [Lapatinib] (partner 2 µM)
Summary of the method: (§1)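 Lung cancer cell lines in 1536-well plates got either a single drug or a fixed anchor-drug dose together with five library-drug doses (not always all listed) in √10 steps, by pin tool, on the day after seeding. Nuclei were counted after 5 days, and relative viability is the treated-to-vehicle ratio of nuclei counts. Values are medians of duplicate plates.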

GSK-J4 + OSI-027 = compound: CCOC(=O)CCNc1cc(N2CCc3ccccc3CC2)nc(-c2ccccn2)n1 [GSK-J4] + COc1cccc2cc(-c3nc([C@H]4CC[C@H](C(=O)O)CC4)n4ncnc(N)c34)[nH]c12 [OSI-027] (partner 0.5 µM)
Summary of the method: as §1

AZ3146 + Luminespib = compound: CN1CCC(CC1)OC2=CC(=C(C=C2)NC3=NC=C4C(=N3)N(C(=O)N4C)C5CCCC5)OC [AZ3146] + CCNC(=O)c1noc(-c2cc(C(C)C)c(O)cc2O)c1-c1ccc(CN2CCOCC2)cc1 [Luminespib] (partner 0.01 µM)
Summary of the method: as §1

AZ3146 + AZD7762 = compound: CN1CCC(CC1)OC2=CC(=C(C=C2)NC3=NC=C4C(=N3)N(C(=O)N4C)C5CCCC5)OC [AZ3146] + NC(=O)Nc1cc(-c2cccc(F)c2)sc1C(=O)N[C@H]1CCCNC1 [AZD7762] (partner 0.2 µM)
Summary of the method: as §1

| Cell Line | relative viability (AZ3146 + Lapatinib; first compound 0.08 µM) | relative viability (AZ3146 + Lapatinib; first compound 0.253 µM) | relative viability (AZ3146 + Lapatinib; first compound 0.8 µM) | relative viability (AZ3146 + Lapatinib; first compound 2.53 µM) | relative viability (AZ3146 + Lapatinib; first compound 8 µM) | relative viability (GSK-J4 + OSI-027; first compound 0.5 µM) | relative viability (GSK-J4 + OSI-027; first compound 1.581 µM) | relative viability (GSK-J4 + OSI-027; first compound 5 µM) | relative viability (GSK-J4 + OSI-027; first compound 15.81 µM) | relative viability (GSK-J4 + OSI-027; first compound 50 µM) | relative viability (AZ3146 + Luminespib; first compound 0.08 µM) | relative viability (AZ3146 + Luminespib; first compound 0.253 µM) | relative viability (AZ3146 + Luminespib; first compound 0.8 µM) | relative viability (AZ3146 + Luminespib; first compound 2.53 µM) | relative viability (AZ3146 + Luminespib; first compound 8 µM) | relative viability (AZ3146 + AZD7762; first compound 0.08 µM) | relative viability (AZ3146 + AZD7762; first compound 0.253 µM) | relative viability (AZ3146 + AZD7762; first compound 0.8 µM) | relative viability (AZ3146 + AZD7762; first compound 2.53 µM) | relative viability (AZ3146 + AZD7762; first compound 8 µM) |
| --- | --- | --- | --- | --- | --- | --- | --- | --- | --- | --- | --- | --- | --- | --- | --- | --- | --- | --- | --- | --- |
| 201T | 1.03 | 1.06 | 1 | 1.06 | 1.06 | 0.668 | 0.414 | 0.932 | 0.691 | 0.721 | 0.994 | 1.03 | 0.979 | 1.09 | 1.04 | 0.534 | 0.643 | 0.634 | 0.553 | 0.594 |
| A549 | 0.977 | 0.948 | 0.924 | 0.872 | 0.109 |  |  |  |  |  |  |  |  |  |  |  |  |  |  |  |
| A-427 | 0.988 | 1.03 | 0.957 | 0.969 | 1.01 | 0.536 |  | 0.439 | 0.396 | 0.198 | 0.819 | 0.895 | 0.913 | 0.879 | 0.818 | 0.622 | 0.665 | 0.56 | 0.527 | 0.508 |
| ABC-1 | 1.24 | 1.15 | 1.33 | 1.31 | 1.11 | 0.533 | 0.442 | 0.441 | 0.357 | 0.336 | 0.331 | 0.483 | 0.782 | 0.568 | 0.532 | 0.756 | 0.717 | 0.829 | 0.893 | 1 |
| BEN |  | 0.683 | 0.805 | 0.659 | 0.681 | 0.334 | 0.249 |  | 0.315 | 0.212 |  | 0.224 | 0.637 | 0.282 | 0.269 |  | 0.608 | 0.668 | 0.589 | 0.68 |
| CAL-12T | 0.701 |  | 0.588 | 0.771 | 0.56 | 0.631 | 0.646 | 0.778 | 0.61 | 0.528 | 0.267 | 0.573 | 0.423 | 0.556 | 0.341 | 0.656 | 0.653 | 0.678 | 0.604 | 0.611 |
| COR-L23 | 1 | 1.02 | 0.871 | 0.923 | 0.899 | 0.753 | 0.603 |  | 0.733 | 0.625 | 0.618 | 0.693 | 0.624 | 0.69 | 0.611 |  |  |  |  |  |
| COR-L 105 | 0.357 | 0.36 | 0.317 | 0.341 | 0.254 | 0.631 | 0.64 | 0.546 | 0.585 | 0.692 | 0.776 | 0.8 | 0.815 | 0.824 | 0.678 |  |  |  |  |  |
| Calu-6 | 1.07 | 1.16 | 1.01 | 1 | 0.397 |  |  |  |  |  |  |  |  |  |  |  |  |  |  |  |
| ChaGo-K-1 |  |  |  |  |  | 0.591 | 0.419 | 0.441 | 0.533 | 0.428 | 0.651 | 0.528 | 0.618 | 0.816 | 0.588 | 0.739 | 0.91 | 0.865 | 0.833 | 0.733 |
| EBC-1 | 0.2 | 0.218 | 0.183 | 0.201 | 0.208 |  |  |  |  |  |  |  |  |  |  |  |  |  |  |  |
| EKVX | 0.172 | 0.222 | 0.225 | 0.24 | 0.2 | 0.673 | 0.412 | 0.619 | 0.6 | 0.567 | 0.836 | 0.842 | 0.838 | 0.981 | 0.899 | 0.506 | 0.773 | 0.541 | 0.787 | 0.824 |
| EMC-BAC-2 | 0.85 | 0.845 | 0.954 | 0.954 | 0.987 | 0.347 | 0.386 | 0.249 | 0.315 | 0.311 | 1.13 | 1.16 | 1.17 | 1.31 | 1.22 | 0.94 | 1.09 | 1.25 | 0.998 | 1.07 |
| EPLC-272H | 0.897 | 0.911 | 0.957 | 0.951 | 0.877 | 0.313 | 0.255 | 0.261 | 0.293 | 0.192 |  | 0.342 | 0.519 | 0.323 | 0.321 | 0.136 | 0.199 | 0.175 | 0.24 | 0.237 |
| H3255 | 0.23 | 0.216 | 0.186 | 0.267 | 0.245 | 0.616 | 0.545 | 0.627 | 0.529 | 0.531 | 0.841 | 0.801 | 0.841 | 0.911 | 0.866 | 0.863 | 0.837 | 0.768 | 0.825 | 0.841 |
| HARA | 0.652 | 0.851 | 0.662 | 0.822 | 0.693 | 0.548 |  |  | 0.282 | 0.219 | 0.895 | 0.823 | 0.711 | 0.816 | 0.512 | 0.189 | 0.416 | 0.344 | 0.21 | 0.169 |
| HCC-15 | 0.873 | 0.819 | 0.896 | 0.857 | 0.832 | 0.722 |  | 0.634 | 0.469 | 0.285 | 0.262 | 0.393 | 0.531 | 0.785 | 0.552 | 1.27 | 1.1 | 1.33 | 1.1 | 1.16 |
| HCC-44 | 0.907 | 0.953 | 0.999 | 1.01 | 0.971 | 0.51 | 0.31 |  | 0.387 | 0.483 | 0.884 | 1.02 | 1.17 | 1.02 | 0.999 | 1.02 | 0.978 | 1.12 | 1 | 0.979 |
| HCC-78 |  | 0.488 | 0.762 | 0.864 | 0.574 | 0.351 | 0.355 | 0.727 | 0.368 | 0.409 |  |  |  |  |  |  | 0.577 | 0.57 | 0.53 | 0.717 |
| HCC-366 | 1 | 1.1 | 1.01 | 0.964 | 0.693 | 1.01 | 0.889 |  | 0.524 | 0.785 |  |  |  |  |  | 0.212 | 0.288 | 0.263 | 0.203 | 0.112 |
